Experimental data taken from US20060094786A1, “Treating syndrome X with substituted tetralins and indanes” (priority 2002, published 2006).
pEC50: −log10 of the molar value.

Assays:
[1] = target: T1, PPARγ (Homo sapiens, UniProt P37231); test: aP2 Assay for PPAR Gamma Agonists (bDNA aP2 mRNA, preadipocytes); assay type: cell-based; settings: for PPARγ FI: fold induction, unbracketed values, PPARγ standard FI = 70.3
T1 construct: Following the challenge of the preadipocytes, cells may be lysed with lysis buffer; endogenous in cells; host or cells: preadipocytes
T1 sequence (P37231 1-505): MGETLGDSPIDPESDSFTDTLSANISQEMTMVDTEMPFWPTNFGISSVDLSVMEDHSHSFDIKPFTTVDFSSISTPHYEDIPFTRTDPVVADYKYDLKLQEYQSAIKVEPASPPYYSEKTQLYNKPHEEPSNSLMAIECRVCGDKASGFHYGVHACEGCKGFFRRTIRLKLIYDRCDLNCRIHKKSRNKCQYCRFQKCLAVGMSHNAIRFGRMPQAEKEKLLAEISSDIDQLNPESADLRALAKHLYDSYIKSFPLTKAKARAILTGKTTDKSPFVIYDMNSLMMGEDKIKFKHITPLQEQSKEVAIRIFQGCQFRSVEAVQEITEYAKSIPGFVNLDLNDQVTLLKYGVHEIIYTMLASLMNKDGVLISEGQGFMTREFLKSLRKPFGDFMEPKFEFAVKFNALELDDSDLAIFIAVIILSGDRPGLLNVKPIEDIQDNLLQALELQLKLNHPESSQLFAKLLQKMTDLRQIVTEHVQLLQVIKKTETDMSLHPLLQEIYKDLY
Description: aP2 Assay for PPAR Gamma Agonists
The procedure is described in detail in Burris et al., Molecular Endocrinology 1999, 13:410, which is hereby incorporated by reference in its entirety, and aP2 assay results of agonist intrinsic activity may be presented as fold increase over vehicle in induction of aP2 mRNA production.
Twenty-four hours after the initial seeding of the 96-well plates by hand (around 20,000/well), the differentiation assay may be initiated. Medium may be removed and replaced with 150 μl of differentiation medium containing vehicle (DMSO) or test compounds. Cells may be returned to incubator for 24 hours culture. At the termination of the challenge, medium may be removed and 100 ul of lysis buffer may be added to initiate the bDNA aP2 mRNA assay. The branched DNA assay may be performed according to the manufacturer's protocol (Bayer Diagnostics; Emeryville, Calif.). Result may be expressed as the fold increase of aP2 mRNA production activated over vehicle controls. EC50's and Emax may be determined by non-linear regression with a sigmoidal fit curve.
Following the challenge of the preadipocytes, cells may be lysed with lysis buffer (Bayer Diagnostics) containing the aP2 oligonucleotides. After a 15 minute incubation at 53° C. or 30 minutes at 37° C. incubator, 70 ul of the lysis buffer from each well may be added to a corresponding capture well (preincubated with 70 ul of blocking buffer (Bayer Diagnostics)). The capture plate may be incubated overnight at 53° C. in a plate incubator (Bayer Diagnostics). After this incubation, the bDNA and labeled probes may be annealed as directed by the manufacturer. Following a 30-minute incubation with the luminescent alkaline phosphatase substrate, dioxitane, the luminescence may be quantitated in a Dynex MLX microtiter plate luminometer. Oligonucleotide probes designed to anneal to the aP2 mRNA and function in the bDNA mRNA detection system are designed with ProbeDesigner software (Bayer Diagnostics). This software package analyzes a target sequence of interest with a series of algorithms in order to determine which regions of the sequence can perform as locations for capture, label, or spacer probe annealing. The sequences of the oligonucleotides are as follows: […]

[2] = target: T2, PPARα (Rattus norvegicus, UniProt P37230); test: HD bDNA Assay (HD gene induction, H4IIE rat hepatoma cell line); assay type: cell-based; settings: assay not named, values equal the PPARα column
T2 construct: H4IIE rat hepatoma cell line was obtained from ATCC; host or cells: H4IIE rat hepatoma cells
T2 sequence (P37230 1-468): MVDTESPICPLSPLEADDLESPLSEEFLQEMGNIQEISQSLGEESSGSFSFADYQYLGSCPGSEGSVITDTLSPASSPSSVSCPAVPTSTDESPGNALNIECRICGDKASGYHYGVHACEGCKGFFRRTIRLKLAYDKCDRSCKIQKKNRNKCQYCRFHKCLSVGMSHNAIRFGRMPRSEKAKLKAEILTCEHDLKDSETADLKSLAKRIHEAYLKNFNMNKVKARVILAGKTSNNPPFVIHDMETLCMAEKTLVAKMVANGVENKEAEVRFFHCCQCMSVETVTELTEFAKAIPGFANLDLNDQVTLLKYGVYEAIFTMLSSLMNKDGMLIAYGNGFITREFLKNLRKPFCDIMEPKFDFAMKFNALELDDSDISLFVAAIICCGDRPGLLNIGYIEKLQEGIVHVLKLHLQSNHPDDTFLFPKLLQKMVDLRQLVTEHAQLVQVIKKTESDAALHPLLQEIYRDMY
Description: H4IIE rat hepatoma cell line was obtained from ATCC. Cells were cultured in 175 cm^2 tissue culture flask or seeded in 96-well plate with (high serum content, 10% fetal bovine serum and 10% calf serum) culture medium and maintained at 37° C. and 5% CO2 throughout study. Twenty-four hours after the initial seeding of the 96-well plate by hand (approximate 100,000/well), the HD gene induction assay was initiated. Media was removed and replaced with 100 ul of low serum culture media (5% charcoal/dextran treated calf serum) containing vehicle (DMSO) or test compounds or standard. Cells returned to incubator for 24 hours culture. At the termination of the challenge, 50 ul lysis buffer with HD gene specific CE, LE, BL probes was added directly into each well to initiate the is bDNA HD mRNA assay. The branched DNA assay was performed according to the manufacturer's protocol (Bayer Diagnostics; Emeryville. Calif.). At the end of the assay, the luminescence was quantitated in Dynex MLX microtiter plate luminometer. EC50's were determined by non-linear regression with a sigmoidal fit utilizing Graphpad Prism.

[3] = target: T3, PPARδ (Homo sapiens, UniProt Q03181); test: Transfection Assay for PPARδ Receptors (PPAR-Gal4 receptor / Gal4-Luciferase Reporter, HEK293 cells); assay type: cell-based; settings: for PPARδ FI: fold induction, unbracketed values, PPARδ standard FI = 36.1
T3 sequence (Q03181 171-441 limits assumed): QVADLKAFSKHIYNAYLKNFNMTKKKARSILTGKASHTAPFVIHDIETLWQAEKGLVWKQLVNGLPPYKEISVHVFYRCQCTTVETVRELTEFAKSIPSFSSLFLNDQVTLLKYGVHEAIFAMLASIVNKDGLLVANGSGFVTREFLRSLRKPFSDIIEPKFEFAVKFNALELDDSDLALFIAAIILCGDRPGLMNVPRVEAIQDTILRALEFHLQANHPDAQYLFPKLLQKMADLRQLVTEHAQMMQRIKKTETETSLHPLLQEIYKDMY
Description: Transfection Assay for PPARδ Receptors
HEK293 cells were grown in DMEM/F-12 Media supplemented with 10% FBS and glutamine (GIBCOBRL). The cells were co-transfected with DNA for PPAR-Gal4 receptor and Gal4-Luciferase Reporter using the DMRIE-C Reagent. On the following day, the DNA-containing medium were replaced with 5% Charcoal treated FBS growth medium. After six hours, cells were seeded in 96 well plate and incubated at 37° C. in CO2 incubator overnight. Cells were challenged by test compounds and incubated for 24 hours at 37° C. in 5% CO2 incubator. Luciferase activity was assayed using the Steady-Glo Luciferase Assay Kit from Promega. DMRIE-C Reagent was purchased from GIBCO Cat. No. 10459-014. OPTI-MEM I Reduced Serum Medium was purchased from GIBCO Cat. No. 31985. Steady-Glo Luciferase Assay Kit was obtained from Promega Part# E254B.

[4] = Comparison of activity of (R) and (S) isomer (test not stated); settings: chiral center on C-2 of the indane ring
Description: Unless otherwise mentioned or indicated, the chemical designation of compounds denotes the mixture of all possible stereochemically isomeric forms, said mixtures containing all diastereomers and enantiomers of the basic molecular structure. More in particular, stereogenic centers may have the (R)- or (S)-configuration; substituents on bivalent cyclic saturated radicals may have either the cis- or trans-configuration. The invention encompasses stereochemically isomeric forms including diastereoisomers, as well as mixtures thereof in any proportion of the disclosed compounds. The disclosed compounds may also exist in their tautomeric forms. Such forms although not explicitly indicated in the above and following formulae are intended to be included within the scope of the present invention. For example, in compound 2.1 or Example 3, there is a chiral center on the C-2 of the indane ring.

Compound | PPARγ FI [1] | pEC50 [2] | PPARδ FI [3] | EC50 ([1]; bracketed values) | activity of the (R) isomer relative to the (S) isomer [4] | EC50 ([3]; bracketed values)
CCCCCN(C(=O)Nc1ccc(C(C)(C)C)cc1)C1Cc2ccc(SC(C)(C)C(=O)O)cc2C1 (stereo not drawn) [Example 11, 2-{2-[3-(4-tert-butylphenyl)-1-(pentyl)ureido]indan-5-ylsulfanyl}-2-methylpropionic acid] | 6.1 | 6.76 | – | – | – | –
CCCCCCN(C(=O)Nc1ccc(OC(F)(F)F)cc1)C1Cc2ccc(SC(C)(C)C(=O)O)cc2C1 (stereo not drawn) [Example 14, 2-Methyl-2-{2-[1-hexyl-3-(4-trifluoromethoxyphenyl)ureido]indan-5-ylsulfanyl}propionic acid] | 0.3 | – | 1.3 | – | – | –
CCN(C(=O)Nc1ccc(OC(F)(F)F)cc1)[C@@H]1Cc2ccc(SC(C)(C)C(=O)O)cc2C1 [Example 3, (R)-2-{2-[1-Ethyl-3-(4-trifluoromethoxyphenyl)ureido]indan-5-ylsulfanyl}-2-methylpropionic acid] | – | 8.10 | – | > 10 µM | more active than the (S) isomer | > 10 µM
CCN(C(=O)Nc1ccc(N(C)C)cc1)C1Cc2ccc(SC(C)(C)C(=O)O)cc2C1 (stereo not drawn) [Example 7, 2-{2-[3-(4-Dimethylaminophenyl)-1-ethylureido]indan-5-ylsulfanyl}-2-methylpropionic acid] | 0 | – | 0.8 | – | – | –
CCCCCN(C(=O)Nc1ccc(C(C)C)cc1)C1Cc2ccc(SC(C)(C)C(=O)O)cc2C1 (stereo not drawn) [Example 10, 2-{2-[3-(4-Isopropylphenyl)-1-(pentyl)ureido]indan-5-ylsulfanyl}-2-methylpropionic acid] | 5.1 | 6.78 | – | – | – | –
CCN(C(=O)Nc1ccc(OC(F)(F)F)cc1)C1Cc2ccc(SC(C)(C)C(=O)O)cc2C1 (stereo not drawn) [Example 2, 2-{2-[1-Ethyl-3-(4-trifluoromethoxyphenyl)ureido]indan-5-ylsulfanyl}-2-methylpropionic acid] | 0.24 | – | 4.2 | – | – | –
CCCCCN(C(=O)Nc1ccc(OC(F)(F)F)cc1)C1Cc2ccc(SC(C)(C)C(=O)O)cc2C1 (stereo not drawn) [Example 8, 2-Methyl-2-{2-[1-pentyl-3-(4-trifluoromethoxyphenyl)ureido]indan-5-ylsulfanyl}-2-methylpropionic acid] | 1.9 | – | 5.9 | – | – | –
CCCCCN(C(=O)Nc1ccc(N(C)C)cc1)C1Cc2ccc(SC(C)(C)C(=O)O)cc2C1 (stereo not drawn) [Example 9, 2-{2-[3-(4-Dimethylaminophenyl)-1-pentylureido]indan-5-ylsulfanyl}-2-methylpropionic acid] | 2.9 | – | 1.0 | – | – | –
